The test system of the assay is mouth (panel of three flavorists). The assay can be described thus: Sensory evaluation of cooling strength by a panel of three flavorists. The format is in vivo. As to conditions: for Cooling strength score of reference standards: reference standards on the scale of 1 to 10, 10 being the strongest. As for the experimental part:
The sensory properties of crystalline MLL and liquid products that contain MLL (from Examples 1-5, above) are evaluated by a panel of three flavorists. The standard method involves holding an aqueous solution containing 20 ppm of coolant in the mouth for 30 seconds, then spitting it out and observing and quantifying the cooling effect when compared with a set of reference standards. Based on their cooling strength, the samples are scored on a scale of 1 to 10, with 10 being the strongest. Samples used as reference standards are to monomenthyl glutarate (3.5 on this scale), l-menthyl lactate (4.5) and N-ethyl-3-p-menthane carboxamide, i.e., WS-3 (10). Several coolant “cocktails,” i.e., liquid coolant-mixtures, are prepared, and their sensory properties are evaluated as in Example 6. The compositions and results appear in Table 2.

Regarding `CC(C)[C@@H]1CC[C@@H](C)C[C@H]1OC(=O)[C@H](C)O` [l-menthyl lactate], the “Cooling strength score of reference standards” value (from here on “Cooling strength score”) was determined as 4.5. On to `CC(C)[C@@H]1CC[C@@H](C)C[C@H]1OC(=O)CCCC(=O)O` [monomenthyl glutarate], for which the “Cooling strength score” value stood at 3.5. For `CC(C)[C@@H]1CC[C@@H](C)C[C@H]1OC(=O)[C@H](C)OC(=O)[C@H](C)O` [Example 6, l-menthyl L-lactoyl-L-lactate], the “Score (cooling strength)” value (aqueous solution containing 20 ppm of coolant held in the mouth for 30 seconds, scale of 1 to 10, 10 being the strongest, Table 1) came to 4.0. Further, the “Cooling strength compared with reference coolants (in words)” value (sensory evaluation) was “intermediate between that of l-menthyl lactate and monomenthyl glutarate”.

Regarding `CCNC(=O)C1CC(C)CCC1C(C)C` (centres unmarked) [WS-3, N-ethyl-3-p-menthane carboxamide], the “Cooling strength score” value was found to be 10.

The values above are taken from patent US7968744B2, “Physiological coolants based on lactoyl esters of menthyl lactate” (Renessenz, LLC, priority 2007, dated 2011).
